According to the supplement of paper PMC10307832:

Key:
Assay in all cases: relative viability (nuclei count vs DMSO), 5 days (fraction); higher = more cells survive
Entinostat + Pictilisib = compound: Nc1ccccc1NC(=O)c1ccc(CNC(=O)OCc2cccnc2)cc1 [Entinostat] + CS(=O)(=O)N1CCN(Cc2cc3nc(-c4cccc5[nH]ncc45)nc(N4CCOCC4)c3s2)CC1 [Pictilisib] (partner 1 µM)
Outline: (§1)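 Lung cancer cell lines were pin-tool dosed in 1536-well plates on the day after seeding, with either a lone drug or a fixed anchor-drug dose plus five library-drug doses (not always all listed) in √10 steps. Nuclei were counted on 4× images after 5 days. Relative viability is the ratio of treated-well to vehicle-well nuclei counts, with each value a median of duplicate plates.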

[1] = compound: C1COCCN1C2=NC(=NC3=C2OC4=C3C=CC=N4)C5=CC(=CC=C5)NC(=O)C6=CN=C(C=C6)N + CS(=O)(=O)CCNCc1ccc(-c2ccc3ncnc(Nc4ccc(OCc5cccc(F)c5)c(Cl)c4)c3c2)o1 [Lapatinib] (partner 2 µM)
Outline: as §1

[2] = compound: C1COCCN1C2=NC(=NC3=C2OC4=C3C=CC=N4)C5=CC(=CC=C5)NC(=O)C6=CN=C(C=C6)N + CCNC(=O)c1noc(-c2cc(C(C)C)c(O)cc2O)c1-c1ccc(CN2CCOCC2)cc1 [Luminespib] (partner 0.01 µM)
Outline: as §1

[3] = compound: C1COCCN1C2=NC(=NC3=C2OC4=C3C=CC=N4)C5=CC(=CC=C5)NC(=O)C6=CN=C(C=C6)N + NC(=O)Nc1cc(-c2cccc(F)c2)sc1C(=O)N[C@H]1CCCNC1 [AZD7762] (partner 0.2 µM)
Outline: as §1

| Cell Line | relative viability (Entinostat + Pictilisib; first compound 0.02 µM) | relative viability (Entinostat + Pictilisib; first compound 0.06325 µM) | relative viability (Entinostat + Pictilisib; first compound 0.2 µM) | relative viability (Entinostat + Pictilisib; first compound 0.6325 µM) | relative viability (Entinostat + Pictilisib; first compound 2 µM) | relative viability ([1]; first compound 0.02 µM) | relative viability ([1]; first compound 0.06325 µM) | relative viability ([1]; first compound 0.2 µM) | relative viability ([1]; first compound 0.6325 µM) | relative viability ([1]; first compound 2 µM) | relative viability ([2]; first compound 0.02 µM) | relative viability ([2]; first compound 0.06325 µM) | relative viability ([2]; first compound 0.2 µM) | relative viability ([2]; first compound 0.6325 µM) | relative viability ([2]; first compound 2 µM) | relative viability ([3]; first compound 0.02 µM) | relative viability ([3]; first compound 0.06325 µM) | relative viability ([3]; first compound 0.2 µM) | relative viability ([3]; first compound 0.6325 µM) | relative viability ([3]; first compound 2 µM) |
| --- | --- | --- | --- | --- | --- | --- | --- | --- | --- | --- | --- | --- | --- | --- | --- | --- | --- | --- | --- | --- |
| SW 1573 | 0.518 | 0.506 | 0.451 | 0.495 | 0.344 | 1.2 | 1.13 | 0.932 | 1.1 | 0.896 | 0.152 | 0.232 | 0.118 | 0.176 | 0.3 |  |  |  |  |  |
| LU99A | 0.289 | 0.326 | 0.334 | 0.271 | 0.231 | 1.1 | 1.04 | 0.92 | 0.64 | 0.35 | 0.265 | 0.221 | 0.235 | 0.207 | 0.266 | 0.433 | 0.416 | 0.233 | 0.319 | 0.295 |
| NCI-H1299 | 0.793 | 0.848 | 0.63 | 0.532 | 0.394 | 0.929 | 0.953 | 0.954 | 0.975 | 0.691 |  |  |  |  |  |  |  |  |  |  |
| NCI-H1355 | 0.473 | 0.411 | 0.389 | 0.254 | 0.201 | 0.95 | 1.01 | 0.997 | 0.936 | 0.814 | 0.708 | 0.741 | 0.7 | 0.58 | 0.693 | 0.875 | 0.765 | 0.713 | 0.66 | 0.539 |
| HARA | 0.428 | 0.533 | 0.442 | 0.368 | 0.219 | 0.749 | 0.699 | 0.803 | 0.707 | 0.502 | 0.562 | 0.762 | 0.843 | 0.79 | 0.335 | 0.382 | 0.41 | 0.305 | 0.403 | 0.359 |
| LXF-289 | 0.78 | 0.81 | 0.657 | 0.393 | 0.191 | 0.939 | 0.97 | 0.99 | 0.9 | 0.696 | 0.598 | 0.798 | 0.783 | 0.494 | 0.321 | 1.08 | 1.3 | 1.08 | 1.09 | 0.67 |
| 201T | 0.708 | 0.662 | 0.625 | 0.532 | 0.467 | 0.957 | 1.02 | 0.984 | 1.04 | 1.01 | 1.13 | 1 | 1.05 | 0.985 | 0.827 | 0.655 | 0.626 | 0.603 | 0.509 | 0.534 |
| HCC-827 | 1.02 | 0.774 | 0.683 | 0.754 | 0.478 | 0.172 | 0.214 | 0.254 | 0.186 | 0.21 | 0.634 | 0.557 | 0.65 | 0.586 | 0.456 | 0.191 | 0.184 | 0.167 | 0.202 | 0.198 |
| NCI-H1703 | 0.263 | 0.274 | 0.314 | 0.384 | 0.304 | 1.17 | 1.21 | 0.761 | 0.798 | 0.308 |  |  |  |  |  | 0.143 | 0.146 | 0.127 | 0.108 | 0.124 |
| NCI-H1975 | 0.206 | 0.245 | 0.228 | 0.151 | 0.139 | 0.836 | 0.841 | 0.817 | 0.874 | 0.395 | 0.157 | 0.148 | 0.202 | 0.29 | 0.3 | 0.72 | 0.67 | 0.608 | 0.557 | 0.51 |
| NCI-H2023 | 0.173 | 0.182 | 0.146 | 0.126 | 0.0933 | 0.759 | 0.798 | 0.618 | 0.565 | 0.471 | 0.793 | 0.38 | 0.477 | 0.507 | 0.245 |  |  |  |  |  |
| ChaGo-K-1 | 0.917 | 0.645 | 0.68 | 0.411 | 0.471 |  |  |  |  |  | 0.635 | 0.582 | 0.513 | 0.526 | 0.518 | 0.892 | 0.93 | 0.84 | 0.886 | 0.635 |
| COR-L 105 | 0.414 | 0.425 | 0.38 | 0.346 | 0.262 | 0.391 | 0.318 | 0.34 | 0.346 | 0.289 | 0.975 | 0.682 | 0.677 | 0.674 | 0.472 |  |  |  |  |  |
| NCI-H2170 | 0.38 | 0.375 | 0.325 | 0.235 | 0.167 | 0.245 | 0.265 | 0.251 | 0.286 | 0.297 | 0.579 | 0.893 | 0.723 | 0.606 | 0.584 | 0.914 | 1.05 | 0.798 | 0.837 | 0.488 |
| A549 | 0.551 | 0.555 | 0.451 | 0.364 | 0.2 | 1.07 | 0.925 | 0.911 | 0.921 | 0.468 |  |  |  |  |  |  |  |  |  |  |
